From PubChem BioAssay AID220 (DTP/NCI, 2004)
Inconclusive results are not listed.

Tested on: CD8F1 mice, subcutaneous mammary adenocarcinoma, T/C%
Test: NCI In Vivo Anticancer Drug Screen. Data for tumor model Mammary Adenocarcinoma CD8F1 (subcutaneous) in CD8F1
Details: higher = larger tumour
Procedure, shortened: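 Mice carrying transplanted tumors received test compound, and survival or tumor size was recorded. Each value is the treated-group measurement divided by the corresponding measurement in vehicle-dosed controls.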

[1] = endpoint: median tumor weight (est.), dose: 12.5 mg/kg/injection, schedule: Q07DX005 (ip), vehicle: saline
[2] = endpoint: median tumor weight (est.), dose: 25.0 mg/kg/injection, schedule: Q07DX005 (ip), vehicle: saline
[3] = endpoint: median tumor weight (est.), dose: 50.0 mg/kg/injection, schedule: Q07DX005 (ip), vehicle: saline

Q: `COc1ccc(-c2csc(=[N+]3CCCCC3)s2)cc1` was tested. Which T/C (endpoint: median tumor weight change, dose: 31.0 mg/kg/injection, schedule: Q01DX001 (ip), vehicle: saline with Tween-80) did it give?
A: Its T/C is 194 % of control.

Q: What about the T/C (endpoint: median tumor weight change, dose: 31.0 mg/kg/injection, schedule: Q01DX001 (ip), vehicle: water) of the same molecule?
A: Its T/C is 75 % of control.

Q: Which results are given for `COc1cccc2c1C(=O)c1c(O)c3c(c(O)c1C2=O)C[C@@](O)(C(=O)CO)C[C@@H]3OC1CC(N)CC(C)O1` (some centres not stated)?
A: T/C (endpoint: median tumor weight change, dose: 1.8 mg/kg/injection, schedule: Q01DX001 (ip), vehicle: water): 187 % of control; T/C (endpoint: median tumor weight change, dose: 3.75 mg/kg/injection, schedule: Q01DX001 (ip), vehicle: water): 94 % of control

Q: `O=C1C=CN(C2OC(CO)C(O)C2O)C(=O)C1` (configuration not stated) was tested. Which T/C [1] did it give?
A: Its T/C is 97 % of control.

Q: And the T/C [2]?
A: The T/C was 99 % of control.

Q: What about the T/C [3] of the same molecule?
A: The T/C was 101 % of control.

Q: And the T/C (endpoint: median tumor weight (est.), dose: 100.0 mg/kg/injection, schedule: Q07DX005 (ip), vehicle: saline)?
A: Its T/C is 120 % of control.

Q: And the T/C (endpoint: median tumor weight (est.), dose: 200.0 mg/kg/injection, schedule: Q07DX005 (ip), vehicle: saline)?
A: The T/C was 78 % of control.

Q: With `CC/C(=C(\c1ccccc1)c1ccc(OCCN(C)C)cc1)c1ccccc1` as the molecule, how does the T/C (endpoint: mean tumor weight (est.), dose: 150.0 mg/kg/injection, schedule: Q07DX002 (ip), vehicle: saline) read?
A: Its T/C is 102 % of control.

Q: What about the T/C (endpoint: mean tumor weight (est.), dose: 200.0 mg/kg/injection, schedule: Q07DX002 (ip), vehicle: saline) of the same molecule?
A: Its T/C is 100 % of control.

Q: And the T/C (endpoint: mean tumor weight, dose: 100.0 mg/kg/injection, schedule: Q07DX007 (ip), vehicle: saline)?
A: Its T/C is 45 % of control.

Q: And the T/C (endpoint: mean tumor weight, dose: 150.0 mg/kg/injection, schedule: Q07DX008 (ip), vehicle: saline)?
A: Its T/C is 52 % of control.

Q: What about the T/C (endpoint: mean tumor weight, dose: 200.0 mg/kg/injection, schedule: Q07DX007 (ip), vehicle: saline) of the same molecule?
A: The T/C was 15 % of control.

Q: And the T/C (endpoint: mean tumor weight, dose: 200.0 mg/kg/injection, schedule: Q07DX008 (ip), vehicle: saline)?
A: Its T/C is 31 % of control.

Q: And the T/C (endpoint: median tumor weight change, dose: 25.0 mg/kg/injection, schedule: Q01DX001 (ip), vehicle: suspension in saline)?
A: The T/C was 105 % of control.

Q: And the T/C (endpoint: median tumor weight change, dose: 50.0 mg/kg/injection, schedule: Q01DX001 (ip), vehicle: suspension in saline)?
A: Its T/C is 111 % of control.

Q: What about the T/C (endpoint: median tumor weight change, dose: 100.0 mg/kg/injection, schedule: Q01DX001 (ip), vehicle: suspension in saline) of the same molecule?
A: Its T/C is 150 % of control.

Q: What about the T/C (endpoint: median tumor weight change, dose: 200.0 mg/kg/injection, schedule: Q01DX001 (ip), vehicle: suspension in saline) of the same molecule?
A: The T/C was 158 % of control.

Q: For `CN1C(=O)CC2(CCN(CCCC(=O)c3ccc(F)cc3)CC2)C1=O`, which T/C (endpoint: median tumor weight (est.), dose: 6.25 mg/kg/injection, schedule: Q07DX005 (ip), vehicle: saline) is on record?
A: The T/C was 112 % of control.

Q: What about the T/C (endpoint: median tumor weight (est.), dose: 6.25 mg/kg/injection, schedule: Q07DX005 (ip), vehicle: suspension in saline) of the same molecule?
A: Its T/C is 52 % of control.

Q: And the T/C [1]?
A: The T/C was 62 % of control.

Q: And the T/C (endpoint: median tumor weight (est.), dose: 12.5 mg/kg/injection, schedule: Q07DX005 (ip), vehicle: suspension in saline)?
A: Its T/C is 108 % of control.

Q: And the T/C [2]?
A: Its T/C is 170 % of control.

Q: And the T/C [3]?
A: Its T/C is 117 % of control.

Q: And the T/C (endpoint: median tumor weight (est.), dose: 50.0 mg/kg/injection, schedule: Q07DX005 (ip), vehicle: suspension in saline)?
A: The T/C was 258 % of control.

Q: And the T/C (endpoint: median tumor weight (est.), dose: 100.0 mg/kg/injection, schedule: Q07DX005 (ip), vehicle: suspension in saline)?
A: The T/C was 122 % of control.

Q: For `CCCCCCCCCCCCCCCC(=O)O[C@@]12C[C@@H](C)[C@@]3(O)[C@@H](C=C(CO)C[C@]4(O)C(=O)C(C)=C[C@@H]34)[C@@H]1C2(C)C`, which T/C (endpoint: median tumor weight (est.), dose: 0.06 mg/kg/injection, schedule: Q07DX005 (ip), vehicle: saline) is on record?
A: The T/C was 84 % of control.

Q: What about the T/C (endpoint: median tumor weight (est.), dose: 0.12 mg/kg/injection, schedule: Q07DX005 (ip), vehicle: saline) of the same molecule?
A: The T/C was 68 % of control.

Q: And the T/C (endpoint: median tumor weight (est.), dose: 0.25 mg/kg/injection, schedule: Q07DX005 (ip), vehicle: saline)?
A: Its T/C is 62 % of control.

Q: What about the T/C (endpoint: median tumor weight (est.), dose: 0.5 mg/kg/injection, schedule: Q07DX005 (ip), vehicle: saline) of the same molecule?
A: Its T/C is 97 % of control.

Q: What about the T/C (endpoint: median tumor weight (est.), dose: 1.0 mg/kg/injection, schedule: Q07DX005 (ip), vehicle: saline) of the same molecule?
A: The T/C was 68 % of control.
